Measured values reported in the supplement of paper PMC11368000.

What was measured:
Details in all cases: exposure time: 90 min
1083 [1] = donor line of iPSC-derived cardiomyocytes; test: POD (EC95) for loss of peak frequency (asystole) vs vehicle; higher = less potent (higher point of departure)
Description: (§1)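 Human iPSC-derived cardiomyocytes from 16 donors were exposed for 90 min at 37 °C to each PFAS at 0.1, 1, 10 and 100 µM in 0.5% DMSO, 384-well plates. Kinetic Ca2+ flux (FLIPR) and Hoechst nuclei counts were normalised to vehicle wells and fitted with a hierarchical Bayesian Hill model to give donor-specific PODs: EC05 for beat-rate increase or decrease and for decay-to-rise ratio increase (QT proxy), EC95 for peak-frequency loss (asystole), EC10 for total cell number loss. 0.03 µM is the lower bound.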

11235 [2] = donor line of iPSC-derived cardiomyocytes; test: as above
Description: as §1

1368 [3] = donor line of iPSC-derived cardiomyocytes; test: as above
Description: as §1

1434 [4] = donor line of iPSC-derived cardiomyocytes; test: as above
Description: as §1

1535 [5] = donor line of iPSC-derived cardiomyocytes; test: as above
Description: as §1

20032 [6] = donor line of iPSC-derived cardiomyocytes; test: as above
Description: as §1

20084 [7] = donor line of iPSC-derived cardiomyocytes; test: as above
Description: as §1

30145 = donor line of iPSC-derived cardiomyocytes; test: as above
Description: as §1

30171 = donor line of iPSC-derived cardiomyocytes; test: as above
Description: as §1

1083 [8] = test: POD (EC10) for decrease in total cell number (cytotoxicity) vs vehicle; higher = less potent (higher point of departure)
Summary of the method: (§2)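 Human iPSC-derived cardiomyocytes from 16 donors were cultured 14 days in 384-well plates, then exposed for 90 min at 37 °C to 0.1, 1, 10 and 100 µM (final, 0.5% DMSO). After the Ca2+ flux read, cells were stained 15 min with Hoechst 33342 (2.2 µg/mL) and MitoTracker Orange and imaged at 10× on an ImageXpress Micro Confocal. Nuclei were counted per field in MetaXpress. Donor-specific cytotoxicity points of departure came from hierarchical Bayesian Hill fits to vehicle-normalised counts, using a 10% decrease.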

1118 = donor line of iPSC-derived cardiomyocytes; test: as above
Summary of the method: as §2

11235 [9] = test: as above
Summary of the method: as §2

1368 [10] = test: as above
Summary of the method: as §2

1434 [11] = test: as above
Summary of the method: as §2

1518 = donor line of iPSC-derived cardiomyocytes; test: as above
Summary of the method: as §2

1531 = donor line of iPSC-derived cardiomyocytes; test: as above
Summary of the method: as §2

1535 [12] = test: as above
Summary of the method: as §2

1565 = donor line of iPSC-derived cardiomyocytes; test: as above
Summary of the method: as §2

20032 [13] = test: as above
Summary of the method: as §2

20084 [14] = test: as above
Summary of the method: as §2

SMILES | POD vs vehicle 1083 [1] | POD vs vehicle 11235 [2] | POD vs vehicle 1368 [3] | POD vs vehicle 1434 [4] | POD vs vehicle 1535 [5] | POD vs vehicle 20032 [6] | POD vs vehicle 20084 [7] | POD vs vehicle 30145 | POD vs vehicle 30171 | POD vs vehicle 1083 [8] | POD vs vehicle 1118 | POD vs vehicle 11235 [9] | POD vs vehicle 1368 [10] | POD vs vehicle 1434 [11] | POD vs vehicle 1518 | POD vs vehicle 1531 | POD vs vehicle 1535 [12] | POD vs vehicle 1565 | POD vs vehicle 20032 [13] | POD vs vehicle 20084 [14]
O=C([O-])C(F)(F)C(F)(F)C(F)(F)C(F)(F)C(F)(F)C(F)(F)C(F)(F)F.[NH4+] [Ammonium_perfluorooctanoate] | > 100 µM | 72.4 µM | > 100 µM | > 100 µM | > 100 µM | > 100 µM | > 100 µM | > 100 µM | > 100 µM | > 100 µM | > 100 µM | > 100 µM | > 100 µM | > 100 µM | > 100 µM | > 100 µM | > 100 µM | > 100 µM | > 100 µM | > 100 µM
OCC(F)(F)C(F)(F)C(F)(F)C(F)F [1H,1H,5H-Perfluoropentanol] | > 100 µM | > 100 µM | > 100 µM | > 100 µM | > 100 µM | > 100 µM | > 100 µM | > 100 µM | > 100 µM | > 100 µM | > 100 µM | > 100 µM | > 100 µM | > 100 µM | > 100 µM | > 100 µM | > 100 µM | > 100 µM | > 100 µM | > 100 µM
O=C(O)C(F)(F)C(F)(F)OC(F)(F)F [Perfluoro-3-methoxypropanoic_acid] | > 100 µM | > 100 µM | > 100 µM | > 100 µM | > 100 µM | > 100 µM | > 100 µM | > 100 µM | > 100 µM | > 100 µM | > 100 µM | > 100 µM | > 100 µM | > 100 µM | > 100 µM | > 100 µM | > 100 µM | > 100 µM | > 100 µM | > 100 µM
O=C(O)C(F)(F)C(F)(F)C(F)(F)C(F)(F)C(F)(F)C(F)(F)C(F)(F)C(F)(F)Cl [9-Chloro-perfluorononanoic_acid] | > 100 µM | 14.7 µM | > 100 µM | 87.4 µM | > 100 µM | > 100 µM | > 100 µM | > 100 µM | 44.1 µM | > 100 µM | > 100 µM | > 100 µM | > 100 µM | 36.7 µM | > 100 µM | > 100 µM | > 100 µM | > 100 µM | > 100 µM | > 100 µM
O=S(=O)(OCC(F)(F)F)C(F)(F)C(F)(F)C(F)(F)C(F)(F)F [2,2,2-Trifluoroethyl_perfluorobutanesulfonate] | > 100 µM | > 100 µM | > 100 µM | > 100 µM | > 100 µM | > 100 µM | > 100 µM | > 100 µM | > 100 µM | > 100 µM | > 100 µM | > 100 µM | > 100 µM | > 100 µM | > 100 µM | > 100 µM | > 100 µM | > 100 µM | > 100 µM | > 100 µM
O=C(O)CCC(F)(F)C(F)(F)C(F)(F)F [3:3 Fluorotelomer carboxylic acid] | > 100 µM | > 100 µM | > 100 µM | > 100 µM | > 100 µM | > 100 µM | > 100 µM | > 100 µM | > 100 µM | > 100 µM | > 100 µM | > 100 µM | > 100 µM | > 100 µM | > 100 µM | > 100 µM | > 100 µM | > 100 µM | > 100 µM | > 100 µM
O=C(O)CCC(F)(F)C(F)(F)C(F)(F)C(F)(F)C(F)(F)F [2H,2H,3H,3H-Perfluorooctanoic_acid] | > 100 µM | 59.9 µM | > 100 µM | 90.8 µM | > 100 µM | > 100 µM | 66.4 µM | 77.8 µM | 71.8 µM | > 100 µM | > 100 µM | > 100 µM | > 100 µM | > 100 µM | > 100 µM | > 100 µM | > 100 µM | > 100 µM | > 100 µM | > 100 µM
OCCC(F)(F)C(F)(F)C(F)(F)C(F)(F)C(F)(F)C(F)(F)C(F)(F)C(F)(F)F [8:2 Fluorotelomer alcohol] | > 100 µM | > 100 µM | > 100 µM | > 100 µM | > 100 µM | > 100 µM | > 100 µM | > 100 µM | > 100 µM | > 100 µM | > 100 µM | > 100 µM | > 100 µM | > 100 µM | > 100 µM | > 100 µM | > 100 µM | > 100 µM | > 100 µM | > 100 µM
O=S(=O)([O-])C(F)(F)C(F)(F)C(F)(F)C(F)(F)F.[K+] [Potassium_perfluorobutanesulfonate] | > 100 µM | > 100 µM | > 100 µM | > 100 µM | > 100 µM | > 100 µM | > 100 µM | > 100 µM | > 100 µM | > 100 µM | > 100 µM | > 100 µM | > 100 µM | 53.9 µM | > 100 µM | > 100 µM | > 100 µM | > 100 µM | > 100 µM | > 100 µM
